Experimental data: patent publication EP0367747A2, “Dideoxy-L-arabinitol derivatives as antiviral compounds” (G.D. Searle & Co., priority 1988, dated 1990)
Read-outs that look alike come from different tables or passages of the source. Marks after values point to notes of the source that are not given here. Each block holds one compound with its values, some of them ahead of it.

What was measured:
[1] = system: Sheep choroid plexus(SCP) cells; assay: Toxicity of compounds in control wells without virus, graded morphologically 0 to 4; format: cell-based; design: key: 0 = no toxicity; 4 = total cell lyses; conditions: 0 to 4 scale
Method: (§1) SCP cells were cultured in 6-well plates to confluence. Wells were washed two times with serum free Minimal Essential Medium (MEM) to remove FBS. 0.2ml of virus was added per well in MEM supplemented with 4mM glutamine and gentamycin. After 1 hour adsorption, the virus was aspirated from each well. The appropriate concentration of each compound in 5 ml of Medium 199 (M-199) supplemented with 2% lamb serum, 4mM glutamine, 0.5% agarose and gentamycin was added to each well. Cultures were incubated at 37°C in a humidified 5% CO₂ incubator for 3-4 weeks. To terminate the test: cultures were fixed in 10% formalin, the agar removed, the monolayers stained with 1% crystal violet and plaques counted. Each compound concentration was run in triplicate. […] 0 is no toxicity observed while 4 is total lysing of the cell monolayer.
Control wells without virus were completed to determine the toxicity of compounds.

visna virus = assay: Inhibition of visna virus in vitro (plaque reduction assay / 96 well plate assay) in SCP cells; format: cell-based; design: key to Antiviral Activity: A = active compound; I = inactive; conditions: for EC50 / inhibition at 1 µM / inhibition at 10 µM / inhibition at 100 µM / inhibition at 1000 µM: Visna-maedi virus; for EC50: inhibition of visna virus, read-out: EC₅₀; for inhibition at 1 µM: Concentration 0.001 mM; for inhibition at 10 µM: Concentration 0.01 mM; for inhibition at 100 µM: Concentration 0.1 mM; for inhibition at 1000 µM: Concentration 1.0 mM; for Antiviral Activity: Table 4
Method: Various compounds as prepared above were tested for inhibition of visna virus in vitro in a plaque reduction assay as follows:
Sheep choroid plexus(SCP) cells were obtained from American Type Culture Collection (ATCC) catalogue number CRL 1700 and were routinely passaged in vitro in Dulbecco's Modified Eagles (DME) medium supplemented with 20% fetal bovine serum (FBS). SCP cells were passaged once per week at a 1:2 or 1:3 split ratio. Visna was titrated by plaque assay in six-well plates. Virus pools were stored at -70°C.
as §1
The 96 well plate assay was performed similarly to the plaque assay above with modifications. SCP cells were seeded at 1 x 10⁴ cells per well in 0.1 ml DME medium. When confluent, the wells were washed with serum free MEM and 25ul of virus added in M-199 supplemented with 2% lamb serum. After 1 hour, 75uL of medium containing test compound was added to each well containing virus. After 2-3 weeks incubation the cytopathic effect of the virus was determined by staining with a vital stain. Cell viability was measured by determining stain density using a 96 well plate reader.

Yeast alpha-glucosidase = molecular target: T1, Yeast alpha-glucosidase (Saccharomyces cerevisiae, UniProt P53341); assay: Alpha-glucosidase inhibition assay, pH 7.4 (p-nitrophenol release); format: biochemical
T1 construct: purchased Sigma
Method: (§2) Yeast alpha-glucosidase and almond beta-glucosidase activities were measured by a modification of the method of Evans, et al., Phytochemistry 22, 768-770 (1983). The modifications included 1) assay of activities at pH 7.4 in HEPES (N-2-hydroxyethylpiperazine-N′-2-ethanesulfonic acid) buffer, 2) measurement in 96 well microtiter plates and 3) inclusion of 10% DMSO in control and test samples. The release of p-nitrophenol from the substrate p-nitrophenylglycoside was measured spectrophotometrically in the presence and absence of test compound. Each assay included a known inhibitor of the enzyme as a standard. IC₅₀ values were determined for compounds which inhibited the enzymes more than 50% at a 1 millimolar concentration. To 100 µl 50 mM HEPES buffer, pH 7.4, in a microtiter plate, add 20 µl test compound in DMSO (DMSO alone in control), 40 µl (0.013 units) yeast alpha-glucosidase (Sigma) in HEPES buffer and pre-incubate at room temperature for 15 minutes. […] Absorption change was measured at 15 to 25 minutes (reaction was linear for at least 30 minutes). Each sample was tested in triplicate. IC₅₀ values were determined from the linear portion of the log concentration vs % inhibition curve obtained from a minimum of 3 points. Deoxynojirimycin was used as standard inhibitor.

almond beta-glucosidase [2] = assay: Beta-glucosidase inhibition assay, pH 7.4 (p-nitrophenol release); format: biochemical; conditions: for β-Glucosidase pH 7.4 % Inhibition: Table 5; for IC50: Table 3, at pH 7.4, read-out: β-glucosidase IC₅₀
Method: as §2, with “µl (0.136” for “µl (0.013”, “units) beta-glucosidase” for “units) yeast alpha-glucosidase”, “(reaction is” for “(reaction was”, “points. Castanospermine” for “points. Deoxynojirimycin”

almond beta-glucosidase [3] = assay: Beta-glucosidase inhibition assay, pH 4.8 (p-nitrophenol release); format: biochemical; conditions: for β-Glucosidase pH 4.8 % Inhibition: Table 5; for IC50: Table 3, at pH 4.8, read-out: β-glucosidase IC₅₀
Method: Yeast alpha-glucosidase and almond beta-glucosidase activities were measured by a modification of the method of Evans, et al., Phytochemistry 22, 768-770 (1983). The modifications included 1) assay of activities at pH 7.4 in HEPES (N-2-hydroxyethylpiperazine-N′-2-ethanesulfonic acid) buffer, 2) measurement in 96 well microtiter plates and 3) inclusion of 10% DMSO in control and test samples. The release of p-nitrophenol from the substrate p-nitrophenylglycoside was measured spectrophotometrically in the presence and absence of test compound. Each assay included a known inhibitor of the enzyme as a standard. IC₅₀ values were determined for compounds which inhibited the enzymes more than 50% at a 1 millimolar concentration. To 100 µl 50 mM sodium citrate buffer, pH 4.8, in a microtiter plate, add 15 µl test compound in DMSO (DMSO alone in control), 20 µl (.017 units) beta-glucosidase (Sigma) in citrate buffer and pre-incubate at room temperature for 15 minutes. Add 25 µl 2.50 mM p-nitrophenyl-beta-D-glucopyranside in citrate buffer, as substrate. Incubate at room temperature 20 minutes (reaction is linear for at least 30 minutes). Add 50 µl 0.4 M NaOH. Read absortion change at 405 nm in a Biotek EIA Autoreader. Each sample was tested in triplicate. IC₅₀ values were determined from the linear portion of the log concentration vs % inhibition curve obtained from a minimum of 3 points. Castanospermine was used as standard inhibitor.

[4] = Table 3, pH 7.4, read-out: α-glucosidase IC₅₀
[5] = Table 5, values marked *, read-out: α-Glucosidase IC₅₀

T1 sequence (P53341 whole entry): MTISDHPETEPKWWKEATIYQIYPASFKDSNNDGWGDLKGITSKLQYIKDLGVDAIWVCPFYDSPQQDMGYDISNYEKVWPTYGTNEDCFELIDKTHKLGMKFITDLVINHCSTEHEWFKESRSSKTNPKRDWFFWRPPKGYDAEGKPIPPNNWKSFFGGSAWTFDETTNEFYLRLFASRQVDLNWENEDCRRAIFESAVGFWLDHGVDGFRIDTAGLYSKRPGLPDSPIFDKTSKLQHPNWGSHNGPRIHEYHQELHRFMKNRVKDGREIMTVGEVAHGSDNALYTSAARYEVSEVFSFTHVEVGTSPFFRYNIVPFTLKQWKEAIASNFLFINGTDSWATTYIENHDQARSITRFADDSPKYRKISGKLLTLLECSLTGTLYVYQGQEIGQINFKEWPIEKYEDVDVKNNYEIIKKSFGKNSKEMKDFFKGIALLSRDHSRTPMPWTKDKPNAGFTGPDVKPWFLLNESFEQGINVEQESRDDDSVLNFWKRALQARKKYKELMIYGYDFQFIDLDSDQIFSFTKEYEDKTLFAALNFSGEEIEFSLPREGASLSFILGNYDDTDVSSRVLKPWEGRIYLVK

SMILES: CCc1ccc(CN2C[C@H](OC(C)=O)[C@@H](OC(C)=O)[C@@H]2COC(C)=O)cc1 [Example 10, 1,4-([4-Ethylphenyl]methylimino)-1,4-dideoxy-L-arabinitol, triacetate]
Toxicity ([1]; Table 4, 0.01 mM Concn.): 1
Toxicity ([1]; Table 4, 0.1 mM Concn.): 1
Toxicity ([1]; Table 4, 1.0 mM Concn.): 4

SMILES: CCCCN1C[C@H](O)[C@@H](O)[C@H](O)[C@H]1CO [N-Bu-DNJ, N-butyl derivative of 1,5-dideoxy-1,5-imino-D-glucitol, reference compound]
inhibition at 1 µM (visna virus): -74%
inhibition at 10 µM (visna virus): 13%
inhibition at 100 µM (visna virus): 100%
inhibition at 1000 µM (visna virus): 100%
Toxicity ([1]; Concentration 0.001 mM): 0
Toxicity ([1]; Concentration 0.01 mM): 0
Toxicity ([1]; Concentration 0.1 mM): 1
Toxicity ([1]; Concentration 1.0 mM): 2

SMILES: CCCCCCN1C[C@H](OC(C)=O)[C@@H](OC(C)=O)[C@@H]1COC(C)=O [Example 7, 1,4-(Hexylimino)-1,4-dideoxy-L-arabinitol, triacetate]
Antiviral Activity (visna virus; 0.01 mM Concn.): A
Antiviral Activity (visna virus; 0.1 mM Concn.): A
Toxicity ([1]; Table 4, 0.01 mM Concn.): 0
Toxicity ([1]; Table 4, 0.1 mM Concn.): 2
Toxicity ([1]; Table 4, 1.0 mM Concn.): 4

SMILES: CC(=O)OCCCCCN1C[C@H](OC(C)=O)[C@@H](OC(C)=O)[C@@H]1COC(C)=O [Example 15, 1,4-([5-Acetyloxypentyl]imino)-1,4-dideoxy-L-arabinitol, triacetate]
EC50 (visna virus): 100 µM

SMILES: CCCCN1C[C@H](OC(C)=O)[C@@H](OC(C)=O)[C@@H]1COC(C)=O [Example 5, 1,4-(Butylimino)-1,4-dideoxy-L-arabinitol, triacetate]
inhibition at 1 µM (visna virus): 9%
inhibition at 10 µM (visna virus): 10%
inhibition at 100 µM (visna virus): 10%
inhibition at 1000 µM (visna virus): 83%
Toxicity ([1]; Concentration 0.001 mM): 0
Toxicity ([1]; Concentration 0.01 mM): 0
Toxicity ([1]; Concentration 0.1 mM): 0
Toxicity ([1]; Concentration 1.0 mM): 0

SMILES: CC(C)C(=O)OC[C@H]1[C@H](OC(=O)C(C)C)[C@@H](OC(=O)C(C)C)CN1C(=O)OCc1ccccc1 [Example 24, 1,4-(Benzyloxycarbonylimino)-1,4-dideoxy-L-arabinitol, triisobutyrate]
IC50 (Yeast alpha-glucosidase; [5]): 33 µM
β-Glucosidase pH 7.4 % Inhibition (almond beta-glucosidase [2]; at 1.0 mM): 1%
β-Glucosidase pH 4.8 % Inhibition (almond beta-glucosidase [3]; at 1.0 mM): 7%

SMILES: CCCC(=O)OC[C@H]1[C@H](OC(=O)CCC)[C@@H](OC(=O)CCC)CN1C(=O)OCc1ccccc1 [Example 22, 1,4-(Benzyloxycarbonylimino)-1,4-dideoxy-L-arabinitol, tributyrate]
Toxicity ([1]; Table 4, 0.1 mM Concn.): 1
Toxicity ([1]; Table 4, 1.0 mM Concn.): 2
inhibition at 10 µM (Yeast alpha-glucosidase; Table 5, at 10 µM (**), read-out: α-Glucosidase % Inhibition): 30%
β-Glucosidase pH 7.4 % Inhibition (almond beta-glucosidase [2]; at 10 µM (**)): 2%**
β-Glucosidase pH 4.8 % Inhibition (almond beta-glucosidase [3]; at 10 µM (**)): 11%**

SMILES: CCCC(=O)OC[C@@H]1NC[C@H](OC(=O)CCC)[C@H]1OC(=O)CCC [Example 23, 1,4-Imino-1,4-dideoxy-L-arabinitol, tributyrate]
EC50 (visna virus): 1 µM

SMILES: CCC(=O)N1C[C@H](OC(C)=O)[C@@H](OC(C)=O)[C@@H]1COC(C)=O [Example 31, 1,4-(Propionylimino)-1,4-dideoxy-L-arabinitol, triacetate]
Toxicity ([1]; Table 4, 0.1 mM Concn.): 1
Toxicity ([1]; Table 4, 1.0 mM Concn.): 3

Now from value to compound, other results behind:

EC50 (visna virus): 125 µM
IC50 (Yeast alpha-glucosidase; [4]): 35 µM
SMILES: CCCCCCN1CC(O)C(O)C1CO [Example 6, 1,4-(Hexylimino)-1,4-dideoxy-L-arabinitol]

inhibition at 1000 µM (Yeast alpha-glucosidase; Table 3, at 1 mM, read-out: α-glucosidase Inhibitory Activity): 23%
SMILES: CC(=O)OC[C@H]1[C@H](OC(C)=O)[C@@H](OC(C)=O)CN1C(=O)c1ccccc1 [Example 27, 1,4-(Benzoylimino)-1,4-dideoxy-L-arabinitol, triacetate]

IC50 (Yeast alpha-glucosidase; [4]): 2.2 µM
IC50 (almond beta-glucosidase [2]): > 1000 µM
β-Glucosidase pH 7.4 % Inhibition (almond beta-glucosidase [2]; at 1.0 mM): 26%
IC50 (almond beta-glucosidase [3]): > 1000 µM
β-Glucosidase pH 4.8 % Inhibition (almond beta-glucosidase [3]; at 1.0 mM): 19%
SMILES: OC[C@H]1[C@H](O)[C@@H](O)CN1Cc1ccc(Cl)cc1 [Example 8, 1,4-([4-Chlorophenyl]methylimino)-1,4-dideoxy-L-arabinitol]
Toxicity ([1]; Table 4, 0.01 mM Concn.): 0
Toxicity ([1]; Table 4, 1.0 mM Concn.): 3

IC50 (Yeast alpha-glucosidase; [4]): 13 µM
IC50 (almond beta-glucosidase [2]): > 1000 µM
β-Glucosidase pH 7.4 % Inhibition (almond beta-glucosidase [2]; at 1.0 mM): 31%
IC50 (almond beta-glucosidase [3]): > 1000 µM
β-Glucosidase pH 4.8 % Inhibition (almond beta-glucosidase [3]; at 1.0 mM): 34%
SMILES: OC[C@H]1[C@H](O)[C@@H](O)CN1CCCc1ccccc1 [Example 16, 1,4-([3-Propylphenyl]imino)-1,4-dideoxy-L-arabinitol]
Toxicity ([1]; Table 4, 0.01 mM Concn.): 0
Toxicity ([1]; Table 4, 0.1 mM Concn.): 0
Toxicity ([1]; Table 4, 1.0 mM Concn.): 3

IC50 (Yeast alpha-glucosidase; [5]): 178 µM
β-Glucosidase pH 7.4 % Inhibition (almond beta-glucosidase [2]; at 1.0 mM): 45%
β-Glucosidase pH 4.8 % Inhibition (almond beta-glucosidase [3]; at 1.0 mM): 14%
SMILES: OCCN1C[C@H](O)[C@@H](O)[C@@H]1CO [Example 2, 1,4-Dideoxy-1,4-([2-hydroxyethyl]imino)-L-arabinitol]
Toxicity ([1]; Table 4, 0.01 mM Concn.): 0
Toxicity ([1]; Table 4, 0.1 mM Concn.): 0

IC50 (Yeast alpha-glucosidase; [5]): 482 µM
β-Glucosidase pH 7.4 % Inhibition (almond beta-glucosidase [2]; at 1.0 mM): 4%
β-Glucosidase pH 4.8 % Inhibition (almond beta-glucosidase [3]; at 1.0 mM): 4%
SMILES: O=C(OCc1ccccc1)N1C[C@H](O)[C@@H](O)[C@@H]1CO [Example 17, 1,4-(Benzyloxycarbonylimino)-1,4-dideoxy-L-arabinitol]

EC50 (visna virus): 100 µM
SMILES: CCc1ccc(CN2C[C@H](O)[C@@H](O)[C@@H]2CO)cc1 [Example 9, 1,4-([4-Ethylphenyl]methylimino)-1,4-dideoxy-L-arabinitol]

IC50 (Yeast alpha-glucosidase; [5]): 227 µM
β-Glucosidase pH 7.4 % Inhibition (almond beta-glucosidase [2]; at 1.0 mM): 26%
β-Glucosidase pH 4.8 % Inhibition (almond beta-glucosidase [3]; at 1.0 mM): 20%
SMILES: CCCCN1CC(O)C(O)C1CO [Example 4, 1,4-(Butylimino)-1,4-dideoxy-L-arabinitol]
Toxicity ([1]; Table 4, 0.01 mM Concn.): 0
Toxicity ([1]; Table 4, 0.1 mM Concn.): 0
Toxicity ([1]; Table 4, 1.0 mM Concn.): 0
